{
  "source": "patent US20040082503A1",
  "about": "“Methods for treatment of diabetes using peptide analogues of insulin” (Neurocrine Biosciences, Inc., priority 1998, published 2004)",
  "key": {"[1]": {"tested_on": "Insulin B chain (9-23) specific murine T cell clone PD12-2.35", "experiment": "Proliferation of insulin B chain (9-23) specific murine T cell clone PD12-2.35", "format": "cell-based, mouse (NOD)", "details": "clone PD12-2.35, 50 μM peptide, Exp. 1 and 2; for S.I. (Stimulation Index): cpm with peptide/cpm in medium alone", "protocol": "(§1) Insulin specific NOD T cell lines were established by culturing lymphocytes isolated from islet-infiltrating populations by in vitro stimulation with either porcine insulin at 25 μg/ml and irradiated NOD islet cell in the presence of irradiated NOD spleen cells as antigen presenting cells and cytokines. To obtain the infiltrating lymphocytes the following procedures were performed (see Wegmann et al., Eur. J. Immunol. 24:1853, 1994): the pancreas from the NOD mouse was digested with collagenase and individual islets were isolated manually. The infiltrating lymphocytes were then obtained by mild trypsin digestion of the islets. The insulin specific T cell lines or clones were propagated by serial stimulation in the presence of NOD spleen cells, porcine insulin and lymphokines. Clones were obtained by limiting dilution of the B chain (9-23) specific T cell lines in the presence of the antigen presenting cells and porcine insulin at 25 μg/ml. Wells with a growing population of cells following limiting dilution were expanded in appropriate medium, and after one cycle of growth were tested for reactivity to the B chain (9-23) peptide of insulin by evaluating the proliferative response.\n(§2) Insulin B chain (9-23) (SEQ ID NO:2) specific mouse (NOD) T cell clones were isolated from infiltrated islets as described in Example 2. Peptide analogues with single alanine substitutions were prepared as described in Example 1. The effect of each analogue on T cell proliferation was then evaluated using an assay performed in 96-well flat bottom microtiter plates (see Daniel et al., Eur. J. Immunol. 25:1056, 1995). Briefly 25,000 T cell clones along with 1 million irradiated NOD spleen cells were cultured in the presence of 50 μg/ml of insulin B chain 9-23 peptide or any of the alanine substituted peptides listed below in triplicate sets. The plates were incubated for a total of 72 hours in 7% carbon dioxide atmosphere with a pulse of 1 μCi/well of tritiated thymidine for the last 6-8 hours of culture. Cells were harvested on a glass fiber filter and the associated radioactivity was counted in a liquid scintillation counter. Results are expressed as mean counts per minute of triplicate wells.\n(§3) NOD T cell clones were incubated in the presence of 50 μM of either the native B chain (9-23) peptide or NBI-6024. The data in Table 3 represent the mean of triplicate sample±standard error of the mean. Within Table 3, S.I. (Stimulation Index)=proliferation (cpm) in the presence of the peptide/proliferation (cpm) in medium alone."}, "[2]": {"tested_on": "Insulin B chain (9-23) specific murine T cell clone PD12-4.1", "experiment": "Proliferation of insulin B chain (9-23) specific murine T cell clone PD12-4.1", "format": "cell-based, mouse (NOD)", "details": "clone PD12-4.1, 50 μM peptide, Exp. 1; for S.I. (Stimulation Index): cpm with peptide/cpm in medium alone", "protocol": "as §1, §2, §3"}, "[3]": {"tested_on": "Insulin B chain (9-23) specific murine T cell clone PD12-4.9", "experiment": "Proliferation of insulin B chain (9-23) specific murine T cell clone PD12-4.9", "format": "cell-based, mouse (NOD)", "details": "clone PD12-4.9, 50 μM peptide, Exp. 1 and 2; for S.I. (Stimulation Index): cpm with peptide/cpm in medium alone", "protocol": "as §1, §2, §3"}, "[4]": {"tested_on": "insulin B chain (9-23) responsive T cell lines from diabetic patients", "experiment": "Proliferation of T cell lines from diabetic patients", "format": "cell-based, human", "details": "for Stimulation Index: 50 μM peptide", "protocol": "FIGS. 4-6 are histograms illustrating the proliferative response (measured in cpm) of T cell lines from different diabetic patients to the native B chain (9-23) peptide or to representative peptide analogues. Peripheral blood mononuclear cells were isolated from diabetic patients and cultured in the presence of insulin B chain (9-23) peptide. After three rounds of restimulation with insulin B chain (9-23), 1×10^5 T-cells and 7×10^4 irradiated autologous PBMCs were added to each well in a round bottom 96-well plate in complete medium. Cells were cultured for 5 days with NBI-6024 (insulin B chain 9-23 with alanine substitutions at positions 16 and 19), insulin B chain (9-23) or medium only. On day 4, the cells were pulsed with ^3H-thymidine and re-cultured for an additional 18 hours. The cultures were then harvested, counted using liquid scintillation, and the data was expressed as the mean counts per minute (cpm) of replicate samples±standard error of the mean (sem).\nFIG. 7 is a histogram illustrating the proliferative response (measured in cpm) of a T cell line from a diabetic patient to the native B chain (9-23) peptide or to representative peptide analogues containing alanine substitutions as indicated. Peripheral blood mononuclear cells were isolated from diabetic patients and cultured in the presence of insulin B chain (9-23) peptide. After three rounds of restimulation with insulin B chain (9-23), 1×10^5 T-cells and 7×10^4 irradiated autologous PBMCs were added to each well in a round bottom 96-well plate in complete medium. Cells were cultured for 5 days with analogue, insulin B chain (9-23) or medium only (BKG), as indicated. On day 4, the cells were pulsed with ^3H-thymidine and re-cultured for an additional 18 hours. The cultures were then harvested, counted using liquid scintillation, and the data was expressed as the mean counts per minute (cpm) of replicate samples±standard error of the mean (sem).\nPeptide analogues of B chain (9-23) containing alanine substitutions at residues 13, 15, 16 or 17 or the doubly substituted alanine analog A^16, 19 (NBI-6024) were prepared as described in Example 1. T cell lines from diabetic patients were prepared by isolating lymphocytes from the blood of the patient by subjecting the blood to a density gradient separation. Isolated lymphocytes were then cultured in the presence of the insulin B chain (9-23) peptide (10 μM) and recombinant human IL-2 in the presence of 5-10% of autologous serum and irradiated autologous peripheral blood lymphocytes in culture medium. Four to five days later cells were harvested and the cycle repeated for 2 or 3 times.\nProliferation of the T cell line, in response to the native B chain (9-23) peptide (SEQ ID NO:2) or to the peptide analogs, was measured by culturing 25,000 to 100,000 T cells in the presence of 50,000-200,000 irradiated autologous PBLs and different concentrations of the insulin B chain (9-23) peptide or a peptide analogue in triplicate cultures. Following 4-5 days of culture, including the last 18 hours with radioactive thymidine, cells were harvested and the associated radioactivity was counted in a liquid scintillation counter. Results are expressed as mean counts per minute for each of the peptide analogues tested."}, "[5]": {"tested_on": "NOD mice (spontaneous diabetes)", "experiment": "Reduction of incidence of diabetes in NOD mice", "format": "in vivo, NOD mouse"}, "[6]": {"tested_on": "Insulin B chain (9-23) specific mouse (NOD) T cell clones", "experiment": "Proliferation of insulin-specific NOD T cell clones (summary over clones)", "format": "cell-based", "details": "four NOD derived T cell clones; 50 μM peptide", "protocol": "as §1, §2, §3"}, "[7]": {"details": "patient number 1 (ID 100) PBLs, CPM with antigen/CPM with medium alone"}, "[8]": {"details": "patient number 8 (ID 1100) PBLs"}, "[9]": {"details": "listed as Insulin B Chain (9-23)"}},
  "note": "Several values for one entry are separate records, joined by “and”; a condition that tells them apart may be missing. Equal values may be shown once.",
  "data": [
    {"substance": "NBI-6024: insulin B chain 9-23 with alanine substitutions at positions 16 and 19 (SHLVEALALVAGERG)", "values": [
      {"measurement": "Proliferative response, Mean cpm ± sem", "setting": "[1]", "value": "841 ± 88 cpm and 452 ± 179 cpm"},
      {"measurement": "S.I. (Stimulation Index)", "setting": "[1]", "value": "1.22 and 0.91"},
      {"measurement": "Proliferative response, Mean cpm ± sem", "setting": "[2]", "value": "566 ± 30", "unit": "cpm"},
      {"measurement": "S.I. (Stimulation Index)", "setting": "[2]", "value": 2.63},
      {"measurement": "Proliferative response, Mean cpm ± sem", "setting": "[3]", "value": "12,313 ± 1,372 cpm and 6,171 ± 725 cpm"},
      {"measurement": "S.I. (Stimulation Index)", "setting": "[3]", "value": "1.35 and 0.85"},
      {"measurement": "Stimulation of diabetic patients' T cell lines and clones responsive to native insulin B chain (9-23)", "setting": "[4]; FIGS. 4-7, Table 5", "value": "do not respond"},
      {"measurement": "Stimulation Index", "setting": "[4]; [7]", "value": 0.9},
      {"measurement": "Stimulation Index", "setting": "[4]; patient number 2 (ID 200) PBLs", "value": 1.2},
      {"measurement": "Stimulation Index", "setting": "[4]; patient number 3 (ID 400) PBLs", "value": 1.0},
      {"measurement": "Stimulation Index", "setting": "[4]; patient number 4 (ID 500) PBLs", "value": 0.9},
      {"measurement": "Stimulation Index", "setting": "[4]; patient number 5 (ID 600) PBLs", "value": 1.6},
      {"measurement": "Stimulation Index", "setting": "[4]; patient number 6 (ID 700) PBLs", "value": 1.5},
      {"measurement": "Stimulation Index", "setting": "[4]; patient number 7 (ID 900) PBLs", "value": 0.9},
      {"measurement": "Stimulation Index", "setting": "[4]; [8]", "value": 0.8},
      {"measurement": "Reduction of the incidence of diabetes compared to the untreated group", "setting": "[5]; female NOD mice, 20 mg/kg (400 μg/mouse) s.c. weekly for 12 weeks then every other week until Week 35, p<0.004, FIG. 11", "value": "60-70%"},
      {"measurement": "Incidence of diabetes compared to neurotensin treated or untreated group", "setting": "[5]; second experiment, NOD mice, 20 mg/kg s.c., FIG. 12", "value": "reduced incidence of diabetes"},
      {"measurement": "Proliferative response over medium only (background)", "setting": "[6]", "value": "little or no proliferation over medium only (background)"}
    ]},
    {"substance": "Native 9-23: native peptide, residues 9-23 of human insulin B chain (SEQ ID NO:2) (SHLVEALYLVCGERG; Residues 9-23 of human insulin B chain; listed as Homo sapiens) [reference compound]", "values": [
      {"measurement": "Proliferative response, Mean cpm ± sem", "setting": "[1]; [9]", "value": "120,886 ± 7,171 cpm and 100,521 ± 1,581 cpm"},
      {"measurement": "S.I. (Stimulation Index)", "setting": "[1]; [9]", "value": "175.7 and 203.89"},
      {"measurement": "Proliferative response, Mean cpm ± sem", "setting": "[2]", "value": "28,593 ± 4664 cpm"},
      {"measurement": "S.I. (Stimulation Index)", "setting": "[2]", "value": 132.99},
      {"measurement": "Proliferative response, Mean cpm ± sem", "setting": "[3]; [9]", "value": "45,541 ± 5,222 cpm and 65,624 ± 4,979 cpm"},
      {"measurement": "S.I. (Stimulation Index)", "setting": "[3]; [9]", "value": "4.99 and 9.1"},
      {"measurement": "Stimulation Index", "setting": "[4]; [7]", "value": 9.9},
      {"measurement": "Stimulation Index", "setting": "[4]; patient number 2 (ID 200) PBLs", "value": 5.3},
      {"measurement": "Stimulation Index", "setting": "[4]; patient number 3 (ID 400) PBLs", "value": 7.8},
      {"measurement": "Stimulation Index", "setting": "[4]; patient number 4 (ID 500) PBLs", "value": 2.1},
      {"measurement": "Stimulation Index", "setting": "[4]; patient number 5 (ID 600) PBLs", "value": 5.8},
      {"measurement": "Stimulation Index", "setting": "[4]; patient number 6 (ID 700) PBLs", "value": 3.2},
      {"measurement": "Stimulation Index", "setting": "[4]; patient number 7 (ID 900) PBLs", "value": 2.6},
      {"measurement": "Stimulation Index", "setting": "[4]; [8]", "value": 3.7},
      {"measurement": "Incidence of diabetes (percent of mice diabetic)", "setting": "[5]; NOD mice, 400 μg s.c. weekly, 13 treatments, neurotensin as control, FIG. 10", "value": "reduced the incidence of diabetes"},
      {"measurement": "Proliferative response over medium only (background)", "setting": "[6]", "value": "significant response"}
    ]}
  ]
}
